Measured values from publication PMC9506414, “Novel 2,6,9-Trisubstituted Purines as Potent CDK Inhibitors Alleviating Trastuzumab-Resistance of HER2-Positive Breast Cancers” (Pharmaceuticals, 2022).
Where two headings read alike, the source gives them in different places.

Columns and labels:
cyclinK [1] = experiment: Western blot of cyclinK in HCC1954 cells; type: cell-based, human; details: 40 and 200 nM (dinaciclib 40 nM), 2 h
Procedure: (§1) The proteins were transferred to nitrocellulose membrane (Gelman Sciences, Ann Arbor, MI, USA) by electroblotting. The membranes were blocked with 5% non-fat dry milk (MB Cell, Seoul, Korea), incubated with primary antibodies for overnight at 4 °C. After the washing steps were performed with TBST solution, the membranes were incubated with HRP-conjugated secondary antibodies for 1 h at rt. After the secondary washing steps using TBST solution, protein bands on the membranes were visualized using enhanced chemiluminescence ECL detection reagent (Biorad Laboratories, Hercules, CA, USA).

CDK12/CyclinK = CDK12/CyclinK (Homo sapiens, UniProt Q9NYV4); experiment: In vitro CDK12/cyclinK kinase assay; type: biochemical; parameters: purchased Reaction Biology Corp. (CRO that ran the assay); details: Table 5; means and standard deviations from three independent assays; read-out: CDK12/CyclinK (IC50/μM)
Chain of CDK12/CyclinK (Q9NYV4 whole entry): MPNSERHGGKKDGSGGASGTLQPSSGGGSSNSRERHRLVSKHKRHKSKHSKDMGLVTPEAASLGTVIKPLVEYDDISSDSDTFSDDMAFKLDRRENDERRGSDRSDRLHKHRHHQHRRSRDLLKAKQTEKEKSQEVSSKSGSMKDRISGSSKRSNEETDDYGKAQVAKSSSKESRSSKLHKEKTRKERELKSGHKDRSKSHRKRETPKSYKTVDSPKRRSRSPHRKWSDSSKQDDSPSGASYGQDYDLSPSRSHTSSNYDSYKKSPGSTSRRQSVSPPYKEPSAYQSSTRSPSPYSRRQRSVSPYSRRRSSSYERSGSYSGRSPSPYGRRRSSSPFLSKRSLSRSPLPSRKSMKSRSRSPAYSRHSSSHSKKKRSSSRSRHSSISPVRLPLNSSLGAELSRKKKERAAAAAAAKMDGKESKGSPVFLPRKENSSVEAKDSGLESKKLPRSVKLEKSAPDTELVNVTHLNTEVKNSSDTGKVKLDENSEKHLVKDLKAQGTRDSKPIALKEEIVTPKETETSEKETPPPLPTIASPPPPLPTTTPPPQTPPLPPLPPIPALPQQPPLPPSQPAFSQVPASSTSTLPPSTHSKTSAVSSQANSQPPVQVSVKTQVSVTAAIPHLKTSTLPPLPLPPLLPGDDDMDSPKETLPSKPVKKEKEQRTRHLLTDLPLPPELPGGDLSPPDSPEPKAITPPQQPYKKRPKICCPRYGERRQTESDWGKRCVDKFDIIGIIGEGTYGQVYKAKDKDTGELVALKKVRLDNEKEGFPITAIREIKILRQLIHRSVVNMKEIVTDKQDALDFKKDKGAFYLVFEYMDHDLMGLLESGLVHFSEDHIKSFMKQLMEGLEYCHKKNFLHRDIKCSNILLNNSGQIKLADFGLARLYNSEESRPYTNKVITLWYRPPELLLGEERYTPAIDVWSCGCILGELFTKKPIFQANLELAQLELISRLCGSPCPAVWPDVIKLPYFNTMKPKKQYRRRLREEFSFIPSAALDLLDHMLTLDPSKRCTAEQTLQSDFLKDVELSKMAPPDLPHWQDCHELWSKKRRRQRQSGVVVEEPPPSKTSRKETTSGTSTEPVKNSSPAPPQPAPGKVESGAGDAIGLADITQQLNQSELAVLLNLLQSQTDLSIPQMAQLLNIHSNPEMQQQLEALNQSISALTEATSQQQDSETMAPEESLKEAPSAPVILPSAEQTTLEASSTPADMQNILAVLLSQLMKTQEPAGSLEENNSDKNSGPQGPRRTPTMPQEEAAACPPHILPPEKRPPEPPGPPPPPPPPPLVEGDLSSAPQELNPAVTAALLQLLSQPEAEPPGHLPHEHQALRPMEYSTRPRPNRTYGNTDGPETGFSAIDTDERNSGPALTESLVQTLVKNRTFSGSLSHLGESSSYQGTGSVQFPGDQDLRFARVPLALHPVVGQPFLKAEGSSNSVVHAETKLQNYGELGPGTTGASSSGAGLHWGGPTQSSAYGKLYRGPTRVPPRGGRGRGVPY
Chain of CDK12/CyclinK (O75909 whole entry partner): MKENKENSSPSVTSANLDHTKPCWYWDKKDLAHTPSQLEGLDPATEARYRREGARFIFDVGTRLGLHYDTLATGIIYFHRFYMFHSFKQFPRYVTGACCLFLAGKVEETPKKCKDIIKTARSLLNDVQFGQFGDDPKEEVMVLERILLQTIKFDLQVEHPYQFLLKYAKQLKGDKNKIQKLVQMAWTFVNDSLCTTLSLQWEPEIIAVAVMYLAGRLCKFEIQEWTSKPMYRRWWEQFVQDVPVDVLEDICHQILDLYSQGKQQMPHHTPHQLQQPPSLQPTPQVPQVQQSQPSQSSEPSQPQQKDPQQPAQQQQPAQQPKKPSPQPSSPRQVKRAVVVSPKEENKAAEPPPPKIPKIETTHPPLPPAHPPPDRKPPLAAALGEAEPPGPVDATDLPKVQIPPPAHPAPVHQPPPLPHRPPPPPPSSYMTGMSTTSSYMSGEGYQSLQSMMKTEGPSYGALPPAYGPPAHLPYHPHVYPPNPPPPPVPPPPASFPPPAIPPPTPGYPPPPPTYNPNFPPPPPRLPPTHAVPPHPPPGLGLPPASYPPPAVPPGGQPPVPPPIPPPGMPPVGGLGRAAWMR
Procedure: In vitro CDK12/cyclinK assays for all compounds and in vitro kinome-wide inhibition profiling of 30d at 10 μM were performed by a CRO company (Reaction Biology Corp., San Diego, CA, USA).

CYP3A4 = CYP3A4 (Homo sapiens, UniProt P08684); experiment: CYP inhibition; type: in vitro ADME
Chain of CYP3A4 (P08684 whole entry): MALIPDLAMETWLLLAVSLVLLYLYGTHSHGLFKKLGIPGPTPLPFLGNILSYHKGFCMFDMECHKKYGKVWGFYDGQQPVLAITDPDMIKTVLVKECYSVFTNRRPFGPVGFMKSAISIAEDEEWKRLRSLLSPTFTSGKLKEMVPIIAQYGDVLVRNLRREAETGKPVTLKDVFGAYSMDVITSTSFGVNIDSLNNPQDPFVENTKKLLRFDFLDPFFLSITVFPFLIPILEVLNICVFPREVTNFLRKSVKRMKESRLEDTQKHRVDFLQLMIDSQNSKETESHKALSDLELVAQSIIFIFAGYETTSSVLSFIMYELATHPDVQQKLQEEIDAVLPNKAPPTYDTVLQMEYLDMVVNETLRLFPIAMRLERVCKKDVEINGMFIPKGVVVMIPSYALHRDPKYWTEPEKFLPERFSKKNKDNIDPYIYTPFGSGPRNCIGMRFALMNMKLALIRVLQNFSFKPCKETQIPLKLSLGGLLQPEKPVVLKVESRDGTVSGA
Procedure: Table 6 In vitro liver metabolic stability and activity against CYPs of potent analogues. | column: CYP % Activity at 10 μM / 3A4

Pol II p-CTD (Ser2) [2] = experiment: Western blot of Pol II p-CTD (Ser2) in SK-Br3 cells; type: cell-based, human; details: 2 h
Description: (§2) For Western blot analysis, the following antibodies were used: anti-Pol II CTD (2629S, Cell Signaling Technology, Danvers, MA, USA), anti-Pol II p-CTD (Ser2) (13499S, Cell Signaling Technology), anti-cyclinK (A301-939A-M, Bethyl Laboratories), anti-IRS1 (3407S, Cell Signaling Technology), anti-WNT1 (SC-514531, Santa Cruz Biotechnology, Dallas, TX, USA), anti-β-actin (MAB1501R, Millipore, Burlington, MA, USA), and horseradish peroxidase (HRP)-conjugated secondary antibodies (anti-mouse GTX213112-01; anti-rabbit GTX213110-01) (Genetex, Irvine, CA, USA).
as §1, with “Cells were lysed with lysis buffer containing 50 mM Tris pH 7.4, 150 mM NaCl, 1 mM EDTA, 1% NP-40, and 0.25% sodium deoxycholate supplemented with protease-inhibitor and phosphatase-inhibitor cocktails. The lysate samples (25 μg/lane) were loaded onto 6–12% sodium dodecyl sulfate polyacrylamide gel and separated by electrophoresis (SDS-PAGE). The proteins” for “The proteins”

CYP2D6 = CYP2D6 (Homo sapiens, UniProt P10635); experiment: CYP inhibition; type: in vitro ADME
Chain of CYP2D6 (P10635 whole entry): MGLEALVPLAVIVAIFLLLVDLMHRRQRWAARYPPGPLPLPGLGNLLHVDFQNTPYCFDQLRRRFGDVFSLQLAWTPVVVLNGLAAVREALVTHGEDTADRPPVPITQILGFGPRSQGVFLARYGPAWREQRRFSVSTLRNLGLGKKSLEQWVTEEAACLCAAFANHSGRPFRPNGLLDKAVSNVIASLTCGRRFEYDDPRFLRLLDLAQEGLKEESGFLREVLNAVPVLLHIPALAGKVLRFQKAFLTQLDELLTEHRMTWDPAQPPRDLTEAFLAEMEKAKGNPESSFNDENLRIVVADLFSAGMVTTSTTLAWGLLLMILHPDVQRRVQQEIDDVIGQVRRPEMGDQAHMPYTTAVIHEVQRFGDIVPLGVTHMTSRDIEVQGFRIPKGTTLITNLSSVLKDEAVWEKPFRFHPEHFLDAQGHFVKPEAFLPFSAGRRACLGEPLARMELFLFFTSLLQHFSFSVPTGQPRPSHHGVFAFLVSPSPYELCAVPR
Procedure: Table 6 In vitro liver metabolic stability and activity against CYPs of potent analogues. | column: CYP % Activity at 10 μM / 2D6

IRS1 [3] = experiment: Western blot of IRS1 in HCC1954 cells; type: cell-based, human; details: 40 and 200 nM, 24 h
Description: as §2
(§3) Cells were lysed with lysis buffer containing 50 mM Tris pH 7.4, 150 mM NaCl, 1 mM EDTA, 1% NP-40, and 0.25% sodium deoxycholate supplemented with protease-inhibitor and phosphatase-inhibitor cocktails. The lysate samples (25 μg/lane) were loaded onto 6–12% sodium dodecyl sulfate polyacrylamide gel and separated by electrophoresis (SDS-PAGE). The proteins were transferred to nitrocellulose membrane (Gelman Sciences, Ann Arbor, MI, USA) by electroblotting. The membranes were blocked with 5% non-fat dry milk (MB Cell, Seoul, Korea), incubated with primary antibodies for overnight at 4 °C. After the washing steps were performed with TBST solution, the membranes were incubated with HRP-conjugated secondary antibodies for 1 h at rt. […]

cyclinK [4] = experiment: Western blot of cyclinK in SK-Br3 cells; type: cell-based, human; details: 2 h
Procedure: as §1

CYP2C19 = CYP2C19 (Homo sapiens, UniProt P33261); experiment: CYP inhibition; type: in vitro ADME
Chain of CYP2C19 (P33261 whole entry): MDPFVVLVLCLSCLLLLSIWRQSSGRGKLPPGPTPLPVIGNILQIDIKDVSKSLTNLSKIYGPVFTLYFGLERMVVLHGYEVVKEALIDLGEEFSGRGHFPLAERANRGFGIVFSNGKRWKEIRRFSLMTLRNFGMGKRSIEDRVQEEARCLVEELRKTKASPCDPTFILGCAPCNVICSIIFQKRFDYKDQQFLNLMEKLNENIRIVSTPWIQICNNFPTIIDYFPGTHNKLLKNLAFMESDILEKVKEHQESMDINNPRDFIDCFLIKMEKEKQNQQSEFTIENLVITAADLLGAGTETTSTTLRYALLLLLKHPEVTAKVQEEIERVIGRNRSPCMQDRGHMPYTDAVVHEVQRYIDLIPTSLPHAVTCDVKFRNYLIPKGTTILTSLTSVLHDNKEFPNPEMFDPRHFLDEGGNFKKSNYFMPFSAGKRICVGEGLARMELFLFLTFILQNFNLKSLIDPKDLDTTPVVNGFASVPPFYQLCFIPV
Procedure: Table 6 In vitro liver metabolic stability and activity against CYPs of potent analogues. | column: CYP % Activity at 10 μM / 2C19

IRS1 [5] = experiment: Western blot of IRS1 in SK-Br3 cells; type: cell-based, human; details: 40 and 200 nM, 24 h
Description: as §2, §3

Pol II p-CTD (Ser2) [6] = experiment: Western blot of Pol II p-CTD (Ser2) in HCC1954 cells; type: cell-based, human; details: 40 and 200 nM (dinaciclib 40 nM), 2 h
Description: as §2
Cells were lysed with lysis buffer containing 50 mM Tris pH 7.4, 150 mM NaCl, 1 mM EDTA, 1% NP-40, and 0.25% sodium deoxycholate supplemented with protease-inhibitor and phosphatase-inhibitor cocktails. The lysate samples (25 μg/lane) were loaded onto 6–12% sodium dodecyl sulfate polyacrylamide gel and separated by electrophoresis (SDS-PAGE). The proteins were transferred to nitrocellulose membrane (Gelman Sciences, Ann Arbor, MI, USA) by electroblotting. The membranes were blocked with 5% non-fat dry milk (MB Cell, Seoul, Korea), incubated with primary antibodies for overnight at 4 °C. After the washing steps were performed with TBST solution, the membranes were incubated with HRP-conjugated secondary antibodies for 1 h at rt. After the secondary washing steps using TBST solution, protein bands on the membranes were visualized using enhanced chemiluminescence ECL detection reagent (Biorad Laboratories, Hercules, CA, USA).

CYP2C9 = CYP2C9 (Homo sapiens, UniProt P11712); experiment: CYP inhibition; type: in vitro ADME
Chain of CYP2C9 (P11712 whole entry): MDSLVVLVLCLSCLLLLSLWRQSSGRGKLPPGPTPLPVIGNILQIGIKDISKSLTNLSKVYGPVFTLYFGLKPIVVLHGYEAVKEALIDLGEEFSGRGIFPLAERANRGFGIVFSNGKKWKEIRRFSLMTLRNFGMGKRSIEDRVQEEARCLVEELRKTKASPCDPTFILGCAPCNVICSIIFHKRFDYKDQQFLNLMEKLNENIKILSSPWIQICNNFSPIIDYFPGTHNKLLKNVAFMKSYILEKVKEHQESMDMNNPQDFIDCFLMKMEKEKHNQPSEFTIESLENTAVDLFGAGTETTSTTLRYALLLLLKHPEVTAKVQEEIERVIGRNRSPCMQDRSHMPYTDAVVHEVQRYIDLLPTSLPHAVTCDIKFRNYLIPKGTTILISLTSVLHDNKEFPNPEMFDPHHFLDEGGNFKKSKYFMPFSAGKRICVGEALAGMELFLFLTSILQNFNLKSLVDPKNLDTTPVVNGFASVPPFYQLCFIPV
Procedure: Table 6 In vitro liver metabolic stability and activity against CYPs of potent analogues. | column: CYP % Activity at 10 μM / 2C9

HCC1954 cells = experiment: Antiproliferation assay (Cell-titer Glo, 72 h); type: cell-based; details: Homo sapiens
Procedure, shortened: (§4)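 Cells in RPMI/10% FBS were seeded at 5000 (SK-Br3) or 1000 (HCC-1954) per well and allowed 24 h to settle. Compounds were pin-transferred as 3-fold, 10-point duplicate series from a 10 mM stock and incubated 72 h at 37 °C. Viability was read by CellTiter-Glo luminescence and IC50 obtained by curve fitting.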

SK-Br3 cells = experiment: Antiproliferation assay (Cell-titer Glo, 72 h); type: cell-based; details: Homo sapiens, SK-BR-3
Procedure, shortened: as §4

WNT1 [7] = experiment: Western blot of WNT1 in HCC1954 cells; type: cell-based, human; details: 40 and 200 nM, 24 h
Description: as §2, §3

WNT1 [8] = experiment: Western blot of WNT1 in SK-Br3 cells; type: cell-based, human; details: 40 and 200 nM, 24 h
Description: as §2, §3

[9] = SK-Br3 cells, 40 and 200 nM (dinaciclib 40 nM)
[10] = 72 h, means and standard deviations from three independent assays, read-out: HCC1954 (GI50/μM)
[11] = 72 h, means and standard deviations from three independent assays, read-out: SK-Br3 (GI50/μM)

Structure (SMILES)	cyclinK level (Western blot) (cyclinK [1])	IC50 (CDK12/CyclinK)	CYP % Activity at 10 μM 3A4 (CYP3A4)	PolII p-CTD (Ser2) level (Western blot) (Pol II p-CTD (Ser2) [2]; [9])	CYP % Activity at 10 μM 2D6 (CYP2D6)	IRS1 expression level (Western blot) (IRS1 [3])	cyclinK level (Western blot) (cyclinK [4]; [9])	CYP % Activity at 10 μM 2C19 (CYP2C19)	IRS1 expression level (Western blot) (IRS1 [5])	PolII p-CTD (Ser2) level (Western blot) (Pol II p-CTD (Ser2) [6])	CYP % Activity at 10 μM 2C9 (CYP2C9)	GI50 (HCC1954 cells; [10])	GI50 (HCC1954 cells; read-out: HCC1954 GI50)	GI50 (SK-Br3 cells; [11])	GI50 (SK-Br3 cells; read-out: SK-Br3 GI50)	WNT1 expression level (Western blot) (WNT1 [7])	WNT1 expression level (Western blot) (WNT1 [8])	PolII p-CTD (Ser2) level (Western blot) (Pol II p-CTD (Ser2) [2]; SK-Br3 cells, 0.2, 1 μM)	cyclinK level (Western blot) (cyclinK [4]; SK-Br3 cells, 0.2, 1 μM)
CCn1cnc2c(NCc3ccc(-c4ccccn4)nc3)nc(-c3ccc(N)nc3)nc21 [Compound 30d, N-([2,2′-Bipyridin]-5-ylmethyl)-2-(6-aminopyridin-3-yl)-9-ethyl-9H-purin-6-amine]	greatly downregulated in a dose-dependent manner	0.021 ± 0.007 µM	43.0%	strong, dose-dependent suppression	81.0%	strong suppression of IRS1 and WNT1	greatly downregulated in a dose-dependent manner	68.1%	strong suppression of IRS1 and WNT1	strong, dose-dependent suppression	57.9%	0.036 ± 0.005 µM	0.034 to 0.036 µM	0.046 ± 0.007 µM	0.046 to 0.052 µM	strong suppression of IRS1 and WNT1	strong suppression of IRS1 and WNT1		
CCn1cnc2c(NCc3ccc(-c4ccccn4)nc3)nc(-c3cnc(N)nc3)nc21 [Compound 30e, N-([2,2′-Bipyridin]-5-ylmethyl)-2-(2-aminopyrimidin-5-yl)-9-ethyl-9H-purin-6-amine]	greatly downregulated in a dose-dependent manner	0.085 ± 0.011 µM	92.8%	strong, dose-dependent suppression	92.1%	strong suppression of IRS1 and WNT1	greatly downregulated in a dose-dependent manner	72.6%	strong suppression of IRS1 and WNT1	strong, dose-dependent suppression	81.6%	0.034 ± 0.002 µM	0.034 to 0.036 µM	0.052 ± 0.003 µM	0.046 to 0.052 µM	strong suppression of IRS1 and WNT1	strong suppression of IRS1 and WNT1		
CCc1cnn2c(NCc3ccc[n+]([O-])c3)cc(N3CCCC[C@H]3CCO)nc12 [Dinaciclib]	only a marginal downregulation of cyclinK			more potent inhibition of PolII CTD phosphorylation			only a marginal downregulation of cyclinK			more potent inhibition of PolII CTD phosphorylation		0.012 ± 0.001 µM		0.012 ± 0.001 µM				strongly suppressed PolII p-CTD	marginal activity in downrgulating cyclinK
